Results taken from the supplement of paper PMC10307832.

Legend:
Assay in all cases: relative viability (nuclei count vs DMSO), 5 days (fraction); higher = more cells survive
ABC-1 = tested on: ABC-1
Outline: (§1)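 Lung cancer cell lines in 1536-well plates were dosed by pin tool the day after seeding, either with one drug alone or with a fixed anchor-drug dose plus five library-drug doses (not always all listed) in √10 steps. After 5 days, cells were fixed and their nuclei stained in one step (final 0.05% Triton X-100, 1% formaldehyde, 1 ug/ml Hoechst), then counted on 4× images. Relative viability is the nuclei count in treated wells divided by that in vehicle wells. Values are medians of duplicate plates.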

CAL-12T = tested on: CAL-12T
Outline: as §1

EPLC-272H = tested on: EPLC-272H
Outline: as §1

HCC-366 = tested on: HCC-366
Outline: as §1

HCC-78 = tested on: HCC-78
Outline: as §1

LC-2-ad = tested on: LC-2-ad
Outline: as §1

LOU-NH91 = tested on: LOU-NH91
Outline: as §1

LU99A = tested on: LU99A
Outline: as §1

NCI-H1395 = tested on: NCI-H1395
Outline: as §1

NCI-H1651 = tested on: NCI-H1651
Outline: as §1

NCI-H1734 = tested on: NCI-H1734
Outline: as §1

Q: Which results are given for COc1cc(N2CCC(C(N)=O)CC2)ccc1Nc1nc(N)c(Cl)c(Nc2ccccc2S(=O)(=O)C(C)C)n1 [HG-5-88-01] + C[C@]1(O)C[C@@H](c2nc(-c3ccc4ccc(-c5ccccc5)nc4c3)c3c(N)nccn32)C1 [Linsitinib] (partner 1 µM)?
A: relative viability (ABC-1; first compound 0.04 µM): 0.679; relative viability (ABC-1; first compound 0.1265 µM): 0.894; relative viability (ABC-1; first compound 0.4 µM): 0.815; relative viability (ABC-1; first compound 1.265 µM): 0.668; relative viability (ABC-1; first compound 4 µM): 1.01; relative viability (CAL-12T; first compound 0.04 µM): 0.773; relative viability (CAL-12T; first compound 0.1265 µM): 0.592; relative viability (CAL-12T; first compound 0.4 µM): 0.78; relative viability (CAL-12T; first compound 1.265 µM): 0.561; relative viability (CAL-12T; first compound 4 µM): 0.726; relative viability (EPLC-272H; first compound 0.04 µM): 1.09; relative viability (EPLC-272H; first compound 0.1265 µM): 1.25; relative viability (EPLC-272H; first compound 0.4 µM): 1.38; relative viability (EPLC-272H; first compound 1.265 µM): 1.02; relative viability (EPLC-272H; first compound 4 µM): 0.264; relative viability (HCC-366; first compound 0.04 µM): 0.573; relative viability (HCC-366; first compound 0.1265 µM): 0.558; relative viability (HCC-366; first compound 0.4 µM): 0.492; relative viability (HCC-366; first compound 1.265 µM): 0.608; relative viability (HCC-366; first compound 4 µM): 0.912; relative viability (HCC-78; first compound 0.04 µM): 0.574; relative viability (HCC-78; first compound 0.1265 µM): 0.401; relative viability (HCC-78; first compound 0.4 µM): 0.273; relative viability (HCC-78; first compound 1.265 µM): 0.222; relative viability (HCC-78; first compound 4 µM): 0.263; relative viability (LC-2-ad; first compound 0.04 µM): 0.817; relative viability (LC-2-ad; first compound 0.1265 µM): 0.861; relative viability (LC-2-ad; first compound 0.4 µM): 0.862; relative viability (LC-2-ad; first compound 1.265 µM): 0.852; relative viability (LC-2-ad; first compound 4 µM): 0.92; relative viability (LOU-NH91; first compound 0.04 µM): 1; relative viability (LOU-NH91; first compound 0.1265 µM): 0.916; relative viability (LOU-NH91; first compound 0.4 µM): 0.841; relative viability (LOU-NH91; first compound 1.265 µM): 0.609; relative viability (LOU-NH91; first compound 4 µM): 0.659; relative viability (LU99A; first compound 0.04 µM): 0.552; relative viability (LU99A; first compound 0.1265 µM): 0.535; relative viability (LU99A; first compound 0.4 µM): 0.531; relative viability (LU99A; first compound 1.265 µM): 0.578; relative viability (LU99A; first compound 4 µM): 0.589; relative viability (NCI-H1395; first compound 0.04 µM): 1.13; relative viability (NCI-H1395; first compound 0.1265 µM): 1.02; relative viability (NCI-H1395; first compound 0.4 µM): 1.07; relative viability (NCI-H1395; first compound 1.265 µM): 0.856; relative viability (NCI-H1395; first compound 4 µM): 1.09; relative viability (NCI-H1651; first compound 0.04 µM): 1.02; relative viability (NCI-H1651; first compound 0.1265 µM): 1.09; relative viability (NCI-H1651; first compound 0.4 µM): 0.991; relative viability (NCI-H1651; first compound 1.265 µM): 1.07; relative viability (NCI-H1651; first compound 4 µM): 1.19; relative viability (NCI-H1734; first compound 0.04 µM): 0.811; relative viability (NCI-H1734; first compound 0.1265 µM): 0.851; relative viability (NCI-H1734; first compound 0.4 µM): 0.964; relative viability (NCI-H1734; first compound 1.265 µM): 0.885
